Reference: the NIST ThermoML archive (doi:10.1016/j.tca.2008.05.002)

What was measured:
[1] = for molar entropy: 101.33 kPa, Small (less than 1 g) adiabatic calorimetry; for Triple point temperature: Adiabatic calorimetry
[2] = Molar enthalpy of transition or fusion; conditions: Adiabatic calorimetry
[3] = molar heat capacity at constant pressure; conditions: 101.33 kPa, Small (less than 1 g) adiabatic calorimetry

CCCCn1cc[n+](C)c1.O=[N+]([O-])[O-] [1-butyl-3-methylimidazolium nitrate]
Conditions | molar entropy, [1] [J/K/mol] | molar heat capacity at constant pressure, [3] [J/K/mol]
5 K, Crystal 4 | 0.18 | 0.536
10 K, Crystal 4 | 1.52 | 4.46
15 K, Crystal 4 | 4.64 | 11.93
20 K, Crystal 4 | 9.379 | 21.74
25 K, Crystal 4 | 15.39 | 32.7
30 K, Crystal 4 | 22.34 | 43.8
35 K, Crystal 4 | 29.9 | 54.44
40 K, Crystal 4 | 37.83 | 64.5
45 K, Crystal 4 | 45.98 | 73.88
50 K, Crystal 4 | 54.22 | 82.59
55 K, Crystal 4 | 62.47 | 90.63
60 K, Crystal 4 | 70.67 | 97.94
70 K, Crystal 4 | 86.8 | 111.1
80 K, Crystal 4 | 102.4 | 122.4
90 K, Crystal 4 | 117.4 | 132.2
100 K, Crystal 4 | 131.8 | 141
110 K, Crystal 4 | 145.6 | 149.2
120 K, Crystal 4 | 158.9 | 156.9
130 K, Crystal 4 | 171.8 | 164.4
140 K, Crystal 4 | 184.2 | 171.8
150 K, Crystal 4 | 196.3 | 179.1
160 K, Crystal 4 | 208.1 | 186.5
170 K, Crystal 4 | 219.7 | 194.1
180 K, Crystal 4 | 231 | 202
190 K, Crystal 4 | 242.1 | 210.1
200 K, Crystal 4 | 253.1 | 218.6
210 K, Crystal 4 | 264 | 227.3
220 K, Crystal 4 | 274.7 | 236.2
230 K, Crystal 4 | 285.4 | 245.1
240 K, Crystal 4 | 296.1 | 254
250 K, Crystal 4 | 306.6 | 262.9
260 K, Crystal 4 | 317.1 | 271.8
270 K, Crystal 4 | 327.5 | 280.7
278.2 K, Crystal 3 | 343.5 | 288
278.2 K, Crystal 4 | 336 | 288
280 K, Crystal 3 | 345.3 | 289.6
285 K, Crystal 3 | 350.5 | 294.1
288.1 K, Crystal 2 | 354.9 | 296.8
288.1 K, Crystal 3 | 353.7 | 296.8
290 K, Crystal 2 | 356.9 | 298.6
292.2 K, Crystal 1 | 359.7 | 300.5
292.2 K, Crystal 2 | 359.2 | 300.5
295 K, Crystal 1 | 362.6 | 303
298.15 K, Crystal 1 | 365.8 | 305.8
300 K, Crystal 1 | 367.7 | 307.5
309.16 K, Crystal 1 | 377.1 | 315.6
309.16 K, Liquid | 435.3 | 357.7
310 K, Liquid | 436.3 | 358
320 K, Liquid | 447.7 | 361.8
330 K, Liquid | 458.9 | 365.8
340 K, Liquid | 469.9 | 369.8
350 K, Liquid | 480.7 | 374.1
360 K, Liquid | 491.2 | 378.5
370 K, Liquid | 501.6 | 383

Conditions | Molar enthalpy of transition or fusion, Crystal 1 [kcal/mol] | Molar enthalpy of transition or fusion, Crystal 2 [kcal/mol] | Molar enthalpy of transition or fusion, Crystal 3 [kcal/mol] | Molar enthalpy of transition or fusion, Crystal 4 [kcal/mol] | Triple point temperature, Crystal 1 [K] | Triple point temperature, Crystal 2 [K] | Triple point temperature, Crystal 3 [K] | Triple point temperature, Crystal 4 [K]
[1] | – | – | – | – | 309.16 | 292.2 | 288.1 | 278.8
[2] | 4.3 | 0.0359 | 0.086 | 0.497 | – | – | – | –
